Literature values in EP2391353B1, “PHARMACEUTICAL COMPOSITIONS OF TRIMETAZIDINE” (Lupin Limited, priority 2009, dated 2010).

Details: administered orally

SMILES: COc1ccc(CN2CCNCC2)c(OC)c1OC.Cl.Cl [Trimetazidine dihydrochloride, 1-(2,3,4-trimethoxybenzyl)-piperazine dihydrochloride]
- Tmax: around 1.8 ± 0.7 hours
- plasma half-life: around 6.0 ± 1.4 hours
